Test results published in PMC12040169 (PLOS Biology, 2025).

Legend:
in vitro = experiment: in vitro; set-up: Viability of infected HeLa host cells, resazurin conversion, bulk resorufin fluorescence relative to DMSO; details: human, hela cells; bulk resorufin, mean of 2
[1] = tested on: T1, C. trachomatis L2/434/Bu expressing GFP (CTL2-GFP); experiment: microbe, parasite or virus in culture; set-up: C. trachomatis total inclusion area by high-content imaging, normalised to DMSO; details: Chlamydia trachomatis, HeLa, 28.5 h; total inclusion area; read-out: % of control remaining
T1 construct: L2/434/Bu GFP intracellular growth in HeLa cells
Text: We screened a library of 36,785 small molecules displaying drug-like properties and covering a wide chemical space (Fig 1A and S2A Data). In this process, we also complemented the assay described above with an imaging-based readout (Fig 1B). After measurements of bulk GFP and resorufin fluorescence, cells were fixed, stained with the DNA dye Hoechst, and imaged at a high-content imaging platform to detect chlamydial inclusions (GFP) and host cell nuclei (Hoechst). The total area and number of inclusions in individual wells and the number of nuclei then served as additional proxies for chlamydial growth and host cell viability. […] MICs were calculated as described above.

[2] = tested on: T2, CTL2-GFP (C. trachomatis L2/434/Bu, GFP-expressing); experiment: microbe, parasite or virus in culture; set-up: Intracellular C. trachomatis growth in HeLa cells, bulk GFP fluorescence relative to DMSO; details: Chlamydia trachomatis, HeLa, 28.5 h; bulk GFP, mean of 2; read-out: % of control remaining
T2 construct: L2/434/Bu, GFP-expressing
Experimental: MICs were calculated as described above.

Compound | viability at 28.5 h, 1 µM (in vitro) | viability at 28.5 h, 5 µM (in vitro) | viability at 28.5 h, 10 µM (in vitro) | activity at 1 µM [1] | activity at 5 µM [1] | activity at 10 µM [1] | activity at 1 µM [2] | activity at 5 µM [2] | activity at 10 µM [2]
Cc1cc(C)nc(NC(=N)NCCc2c[nH]c3ccccc23)n1 [CBK266321] | 109% | 98.8% | 81.2% | 75.6% | 44.4% | 14.7% | 89.2% | 67.2% | 37.1%
Oc1ccc(Cn2cnc3ccccc32)c2cccnc12 [CBK291202] | 105% | 104% | 96% | 116% | 52.7% | 24.3% | 103% | 47.1% | 19.3%
Cc1ccc(C(=O)/C=C\Nc2ccc(S(=O)(=O)Nc3cc(C)nc(C)n3)cc2)cc1 [CBK264384] | 107% | 108% | 104% | 79.2% | 51.7% | 35.8% | 110% | 72.4% | 31.8%
COc1ccc(CC(=O)N2CCCC(c3nc(C)c4c(n3)N(CC3CC3)CCC4)C2)cc1 (stereo not drawn) [CBK286228] | 102% | 97.8% | 97% | 88.7% | 46.6% | 3.42% | 130% | 39.3% | 5.11%
c1ccc(CNc2nnc(-c3ccccc3)s2)cc1 [CBK074928] | 95% | 91.9% | 104% | 68.4% | 34.4% | 26.9% | 92.7% | 77.6% | 65.1%
CCC1C(c2ccc(C)cc2)=CCC(C(=O)NCCCN(C)C)C1C (stereo not drawn) [CBK016514] | 104% | 88.9% | 100% | 109% | 44.4% | 8.47% | 112% | 33.9% | 9.47%
CC(C(=O)N1CCC2(CC1)NC(=O)c1ccccc1N2)(c1ccccc1)c1ccccc1 [CBK286308] | 97.7% | 93.1% | 101% | 82.6% | 44.9% | 28.3% | 96.5% | 59.6% | 46.3%
CC(C)Nc1nc2cc(Cl)c(Cl)cc2nc1Sc1cccc(O)c1 [CBK093732] | 95.8% | 88% | 100% | 129% | 50.2% | 35.1% | 124% | 94.8% | 55.6%
COc1cc(C=C2SC(NCC(=O)O)=NC2=O)ccc1OCc1ccc(Cl)cc1Cl [CBK297555] | 88.5% | 92.1% | 88.9% | 110% | 86.9% | 44% | 135% | 155% | 200%
O=C(CSCc1ccc(Cl)cc1)Nc1ccc(S(=O)(=O)N2CCCCCC2)cc1 [CBK267017] | 101% | 104% | 104% | 92.3% | 104% | 54.9% | 99.4% | 85% | 60.7%
CN1CCN(c2cc3c(cc2F)c(=O)c(C(=O)O)cn3-c2ccc(F)cc2)CC1 [CBK287138] | 103% | 102% | 104% | 11.1% | 0.783% | 0.31% | 14.6% | 5.16% | 0.93%
COc1ccc(OC)c(Nc2nc(NCC3CCCO3)c3ccccc3n2)c1 (stereo not drawn) [CBK268403C] | 97.5% | 96.9% | 99.1% | 73.4% | 61% | 10.2% | 127% | 105% | 26.6%
OC(CN1CCOCC1)Cn1c(-c2ccccc2)c(-c2ccccc2)c2ccc3ccccc3c21 (stereo not drawn) [CBK263996G] | 90.5% | 92.4% | 89.5% | 101% | 73.2% | 61.6% | 113% | 96.6% | 91.1%
CN(C)CCCNC(=O)c1ccc([N+](=O)[O-])o1 [CBK262118] | 97.2% | 98.6% | 104% | 104% | 60.7% | 34.6% | 133% | 80.5% | 42.1%
O=C1CC[C@@H](NCc2cccs2)[C@H](c2cc(F)cc(F)c2)N1 [CBK283129] | 112% | 109% | 110% | 98.3% | 76.7% | 78.8% | 98.3% | 98.8% | 82.2%
CN1CCN(c2ccc3ccn(S(=O)(=O)c4ccc([N+](=O)[O-])cc4)c3n2)CC1 [CBK070757C] | 89.6% | 87.7% | 86% | 106% | 64% | 24.6% | 140% | 89.2% | 46.7%
COc1ccc(CCN(CCc2ccccc2)CC(O)COc2cccc3c2CCCC3)cc1 (stereo not drawn) [CBK024506T] | 97.4% | 95.2% | 101% | 99% | 114% | 55.3% | 108% | 104% | 51%
CCOc1ccsc1C(=O)Nc1cc(C)ccn1 [CBK004029] | 92.3% | 92.3% | 71.7% | 116% | 64.9% | 19.7% | 122% | 61.7% | 32.4%
C[C@@H]1CN(c2ccc(C(F)(F)F)c(OCc3ccccc3)n2)CCN1 [CBK003987A] | 102% | 98.9% | 113% | 70.4% | 53.4% | 17.6% | 110% | 90.5% | 35%
O=C(Nc1ccc2[nH]ccc2c1)c1ccccc1Nc1cccc(C(F)(F)F)c1 [CBK149583] | 118% | 114% | 112% | 93.2% | 59.8% | 72.2% | 119% | 90% | 67.7%
